Measured values published in PubChem BioAssay AID540351 (The Scripps Research Institute Molecular Screening Center, 2011).
Calls of active or inactive are those of the source. No rule for the calls is given here.

Legend:
Assay in all cases: selectivity profiling over binding targets, CYP450 – biochemical, Ricerca HitProfilingScreen, selectivity assay for S1P3 agonist project, profiling panel (AID 540351)
[1] = biological target: Cytochrome P450 2C9 (Homo sapiens) (UniProt P11712); settings: Ricerca receptor/enzyme binding panel plus CYP450; CYP450, 2C9; at 30 µM; hits give high values
[2] = biological target: Cytochrome P450 1A2 (Homo sapiens) (UniProt P05177); settings: Ricerca receptor/enzyme binding panel plus CYP450; CYP450, 1A2; at 30 µM; hits give high values
[3] = test system: Adrenergic alpha1A; settings: Ricerca receptor/enzyme binding panel plus CYP450, at 30 µM, hits give high values
[4] = test system: Sigma 1; settings: Ricerca receptor/enzyme binding panel plus CYP450, at 30 µM, hits give high values
[5] = test system: GABAA; settings: Central, at 30 µM, hits give high values
[6] = test system: Alpha-2A adrenergic receptor (Homo sapiens) + Histamine H1 receptor (Homo sapiens) + Mu-type opioid receptor (Homo sapiens); settings: Ricerca receptor/enzyme binding panel plus CYP450; at 30 µM; hits give high values
[7] = test system: Adrenergic alpha1B; settings: Ricerca receptor/enzyme binding panel plus CYP450, at 30 µM, hits give high values
[8] = test system: Dopamine D2; settings: Ricerca receptor/enzyme binding panel plus CYP450, at 30 µM, hits give high values
[9] = test system: CYP450, 2C19; settings: Ricerca receptor/enzyme binding panel plus CYP450, at 30 µM, hits give high values
[10] = test system: Adrenergic beta1; settings: Ricerca receptor/enzyme binding panel plus CYP450, at 30 µM, hits give high values
[11] = biological target: D(1A) dopamine receptor (Homo sapiens) (UniProt P21728); settings: Ricerca receptor/enzyme binding panel plus CYP450; Dopamine D1; at 30 µM; hits give high values
[12] = biological target: Voltage-gated inwardly rectifying potassium channel KCNH2 (Homo sapiens) (UniProt Q12809); settings: Ricerca receptor/enzyme binding panel plus CYP450; Potassium Channel hERG; at 30 µM; hits give high values
[13] = test system: Sodium Channel, Site 2; settings: Ricerca receptor/enzyme binding panel plus CYP450, at 30 µM, hits give high values
[14] = biological target: Cytochrome P450 2D6 (Homo sapiens) (UniProt P10635); settings: Ricerca receptor/enzyme binding panel plus CYP450; CYP450, 2D6; at 30 µM; hits give high values
[15] = biological target: Muscarinic acetylcholine receptor M2 (Homo sapiens) (UniProt P08172); settings: Ricerca receptor/enzyme binding panel plus CYP450, at 30 µM, hits give high values
[16] = biological target: Muscarinic acetylcholine receptor M3 (Homo sapiens) (UniProt P20309); settings: Ricerca receptor/enzyme binding panel plus CYP450, at 30 µM, hits give high values
[17] = biological target: Beta-2 adrenergic receptor (Homo sapiens) (UniProt P07550); settings: Ricerca receptor/enzyme binding panel plus CYP450; Adrenergic beta2; at 30 µM; hits give high values
[18] = test system: Histamine H1; settings: Ricerca receptor/enzyme binding panel plus CYP450, at 30 µM, hits give high values
[19] = test system: Transporter, Norepinephrine (NET); settings: Ricerca receptor/enzyme binding panel plus CYP450, at 30 µM, hits give high values
[20] = test system: Adenosine A1; settings: Ricerca receptor/enzyme binding panel plus CYP450, at 30 µM, hits give high values
[21] = test system: Opiate mu (OP3, MOP); settings: Ricerca receptor/enzyme binding panel plus CYP450, at 30 µM, hits give high values
[22] = test system: Calcium Channel L-Type; settings: Ricerca receptor/enzyme binding panel plus CYP450, Dihydropyridine, at 30 µM, hits give high values
[23] = biological target: Cytochrome P450 3A4 (Homo sapiens) (UniProt P08684); settings: Ricerca receptor/enzyme binding panel plus CYP450; CYP450, 3A4; at 30 µM; hits give high values
[24] = test system: Cannabinoid CB1; settings: Ricerca receptor/enzyme binding panel plus CYP450, at 30 µM, hits give high values
[25] = test system: Adenosine A2A; settings: Ricerca receptor/enzyme binding panel plus CYP450, at 30 µM, hits give high values
[26] = test system: Prostanoid EP4; settings: Ricerca receptor/enzyme binding panel plus CYP450, at 30 µM, hits give high values
[27] = test system: Nicotinic Acetylcholine; settings: Ricerca receptor/enzyme binding panel plus CYP450, at 30 µM, hits give high values
[28] = biological target: 5-hydroxytryptamine receptor 2B (Homo sapiens) (UniProt P41595); settings: Ricerca receptor/enzyme binding panel plus CYP450; Serotonin (5-Hydroxytryptamine) 5-HT2B; at 30 µM; hits give high values
[29] = biological target: Alpha-2A adrenergic receptor (Homo sapiens) (UniProt P08913); settings: Ricerca receptor/enzyme binding panel plus CYP450; Adrenergic alpha2A; at 30 µM; hits give high values
[30] = test system: Glutamate NMDA; settings: Ricerca receptor/enzyme binding panel plus CYP450, Phencyclidine, at 30 µM, hits give high values

Sequence of Alpha-2A adrenergic receptor (Homo sapiens) (P08913 whole entry, looked up): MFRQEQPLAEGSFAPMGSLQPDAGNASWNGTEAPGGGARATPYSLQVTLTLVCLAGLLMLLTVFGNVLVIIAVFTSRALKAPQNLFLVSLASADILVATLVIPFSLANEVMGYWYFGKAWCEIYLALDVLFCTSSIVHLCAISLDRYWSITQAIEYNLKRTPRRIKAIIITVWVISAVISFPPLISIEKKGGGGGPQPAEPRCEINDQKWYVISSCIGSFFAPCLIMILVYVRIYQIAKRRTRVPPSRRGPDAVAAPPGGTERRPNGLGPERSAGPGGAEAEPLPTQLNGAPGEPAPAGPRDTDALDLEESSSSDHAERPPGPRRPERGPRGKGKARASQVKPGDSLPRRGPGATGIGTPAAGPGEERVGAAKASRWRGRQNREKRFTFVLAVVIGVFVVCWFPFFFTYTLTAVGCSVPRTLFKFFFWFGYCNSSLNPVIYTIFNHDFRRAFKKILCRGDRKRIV
Sequence of Voltage-gated inwardly rectifying potassium channel KCNH2 (Homo sapiens) (Q12809 whole entry, looked up): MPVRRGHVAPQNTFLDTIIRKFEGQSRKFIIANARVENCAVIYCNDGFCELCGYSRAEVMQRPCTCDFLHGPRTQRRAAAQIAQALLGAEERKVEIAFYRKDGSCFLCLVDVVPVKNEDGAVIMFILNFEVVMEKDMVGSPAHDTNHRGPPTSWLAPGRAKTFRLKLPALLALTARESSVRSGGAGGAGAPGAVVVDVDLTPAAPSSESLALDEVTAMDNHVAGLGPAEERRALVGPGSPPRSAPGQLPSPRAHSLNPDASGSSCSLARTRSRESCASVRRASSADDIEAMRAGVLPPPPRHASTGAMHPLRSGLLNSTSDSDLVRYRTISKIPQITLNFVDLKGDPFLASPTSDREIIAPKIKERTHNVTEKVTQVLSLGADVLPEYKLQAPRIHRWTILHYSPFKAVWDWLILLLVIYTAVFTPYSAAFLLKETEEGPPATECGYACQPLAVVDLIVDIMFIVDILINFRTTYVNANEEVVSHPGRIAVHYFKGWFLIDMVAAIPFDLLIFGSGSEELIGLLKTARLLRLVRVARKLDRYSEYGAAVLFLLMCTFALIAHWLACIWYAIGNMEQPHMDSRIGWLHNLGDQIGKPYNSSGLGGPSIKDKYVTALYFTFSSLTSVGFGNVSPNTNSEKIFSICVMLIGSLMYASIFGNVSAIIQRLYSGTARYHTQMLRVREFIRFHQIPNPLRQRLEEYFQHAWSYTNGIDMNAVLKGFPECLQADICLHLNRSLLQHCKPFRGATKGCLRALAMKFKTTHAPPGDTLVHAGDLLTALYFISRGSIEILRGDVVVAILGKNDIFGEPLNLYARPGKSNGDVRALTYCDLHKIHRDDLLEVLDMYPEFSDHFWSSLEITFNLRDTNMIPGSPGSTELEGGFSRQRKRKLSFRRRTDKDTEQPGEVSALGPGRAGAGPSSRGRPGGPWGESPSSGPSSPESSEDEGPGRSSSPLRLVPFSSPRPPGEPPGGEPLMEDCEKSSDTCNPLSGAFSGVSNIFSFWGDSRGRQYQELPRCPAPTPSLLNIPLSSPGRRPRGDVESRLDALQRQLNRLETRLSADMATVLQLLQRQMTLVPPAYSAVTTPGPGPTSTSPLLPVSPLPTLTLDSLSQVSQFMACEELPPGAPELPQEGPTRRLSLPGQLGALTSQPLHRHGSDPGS
Sequence of D(1A) dopamine receptor (Homo sapiens) (P21728 whole entry, looked up): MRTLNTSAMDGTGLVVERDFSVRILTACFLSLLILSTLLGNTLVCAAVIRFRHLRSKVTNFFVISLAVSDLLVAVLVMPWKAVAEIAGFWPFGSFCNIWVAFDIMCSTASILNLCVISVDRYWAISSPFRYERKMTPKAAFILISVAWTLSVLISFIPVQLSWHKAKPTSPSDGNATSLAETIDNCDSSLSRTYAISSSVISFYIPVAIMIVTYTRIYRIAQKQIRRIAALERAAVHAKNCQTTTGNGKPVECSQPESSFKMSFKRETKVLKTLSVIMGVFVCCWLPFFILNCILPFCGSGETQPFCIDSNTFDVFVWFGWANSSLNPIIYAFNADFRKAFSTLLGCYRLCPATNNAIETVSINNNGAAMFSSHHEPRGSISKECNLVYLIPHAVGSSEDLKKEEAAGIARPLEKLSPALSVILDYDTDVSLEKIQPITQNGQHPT
Sequence of Muscarinic acetylcholine receptor M3 (Homo sapiens) (P20309 whole entry, looked up): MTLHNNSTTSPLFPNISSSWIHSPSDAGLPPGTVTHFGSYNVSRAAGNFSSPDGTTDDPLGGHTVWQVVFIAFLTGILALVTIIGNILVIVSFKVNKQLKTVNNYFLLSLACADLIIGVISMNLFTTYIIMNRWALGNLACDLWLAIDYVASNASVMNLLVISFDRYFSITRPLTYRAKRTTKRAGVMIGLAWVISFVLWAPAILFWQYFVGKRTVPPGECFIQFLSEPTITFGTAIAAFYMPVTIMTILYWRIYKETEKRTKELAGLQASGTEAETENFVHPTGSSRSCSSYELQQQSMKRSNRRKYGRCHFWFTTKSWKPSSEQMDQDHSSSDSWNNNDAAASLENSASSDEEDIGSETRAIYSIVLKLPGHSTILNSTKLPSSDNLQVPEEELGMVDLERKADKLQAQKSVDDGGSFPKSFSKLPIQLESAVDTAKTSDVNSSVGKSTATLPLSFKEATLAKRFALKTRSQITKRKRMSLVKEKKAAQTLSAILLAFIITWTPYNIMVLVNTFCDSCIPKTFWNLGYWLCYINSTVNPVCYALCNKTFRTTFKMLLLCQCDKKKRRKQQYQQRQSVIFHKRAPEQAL
Sequence of Cytochrome P450 1A2 (Homo sapiens) (P05177 whole entry, looked up): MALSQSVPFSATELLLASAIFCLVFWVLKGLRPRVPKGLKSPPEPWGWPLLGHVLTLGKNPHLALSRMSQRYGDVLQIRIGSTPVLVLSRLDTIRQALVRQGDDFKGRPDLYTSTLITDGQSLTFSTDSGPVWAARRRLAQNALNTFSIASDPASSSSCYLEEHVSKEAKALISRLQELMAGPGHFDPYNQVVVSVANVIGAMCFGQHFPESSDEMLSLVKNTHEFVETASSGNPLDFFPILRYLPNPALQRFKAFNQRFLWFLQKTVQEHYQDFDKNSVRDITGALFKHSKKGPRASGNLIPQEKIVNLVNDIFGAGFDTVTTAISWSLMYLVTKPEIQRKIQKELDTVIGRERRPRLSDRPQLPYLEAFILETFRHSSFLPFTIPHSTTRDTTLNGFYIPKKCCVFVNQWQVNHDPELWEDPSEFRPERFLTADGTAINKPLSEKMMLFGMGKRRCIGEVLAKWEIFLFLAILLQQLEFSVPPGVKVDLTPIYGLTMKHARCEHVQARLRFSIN
Sequence of 5-hydroxytryptamine receptor 2B (Homo sapiens) (P41595 whole entry, looked up): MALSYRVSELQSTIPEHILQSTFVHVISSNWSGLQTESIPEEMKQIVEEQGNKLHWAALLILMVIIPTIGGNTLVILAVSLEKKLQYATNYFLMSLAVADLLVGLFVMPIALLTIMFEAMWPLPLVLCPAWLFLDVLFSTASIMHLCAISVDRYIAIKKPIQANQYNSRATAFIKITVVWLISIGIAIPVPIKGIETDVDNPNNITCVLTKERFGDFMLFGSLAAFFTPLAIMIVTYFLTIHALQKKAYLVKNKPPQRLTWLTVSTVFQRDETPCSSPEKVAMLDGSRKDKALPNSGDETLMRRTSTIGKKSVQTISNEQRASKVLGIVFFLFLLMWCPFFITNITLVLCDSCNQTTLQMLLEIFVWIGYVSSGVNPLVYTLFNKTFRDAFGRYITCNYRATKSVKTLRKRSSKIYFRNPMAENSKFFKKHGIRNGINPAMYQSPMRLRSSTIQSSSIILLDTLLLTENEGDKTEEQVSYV
Sequence of Muscarinic acetylcholine receptor M2 (Homo sapiens) (P08172 whole entry, looked up): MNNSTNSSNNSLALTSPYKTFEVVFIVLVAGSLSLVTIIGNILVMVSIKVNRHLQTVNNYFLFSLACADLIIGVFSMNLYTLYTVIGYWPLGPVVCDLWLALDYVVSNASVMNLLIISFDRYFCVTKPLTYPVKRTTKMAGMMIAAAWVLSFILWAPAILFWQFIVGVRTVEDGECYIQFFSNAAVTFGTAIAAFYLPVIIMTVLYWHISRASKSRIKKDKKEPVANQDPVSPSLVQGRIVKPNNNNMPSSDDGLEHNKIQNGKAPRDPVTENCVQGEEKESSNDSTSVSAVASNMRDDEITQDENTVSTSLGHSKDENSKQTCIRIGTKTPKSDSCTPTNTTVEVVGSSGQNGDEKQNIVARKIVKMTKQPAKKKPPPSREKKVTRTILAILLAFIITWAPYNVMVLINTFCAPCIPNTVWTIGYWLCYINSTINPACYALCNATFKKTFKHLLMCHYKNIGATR
Sequence of Beta-2 adrenergic receptor (Homo sapiens) (P07550 whole entry, looked up): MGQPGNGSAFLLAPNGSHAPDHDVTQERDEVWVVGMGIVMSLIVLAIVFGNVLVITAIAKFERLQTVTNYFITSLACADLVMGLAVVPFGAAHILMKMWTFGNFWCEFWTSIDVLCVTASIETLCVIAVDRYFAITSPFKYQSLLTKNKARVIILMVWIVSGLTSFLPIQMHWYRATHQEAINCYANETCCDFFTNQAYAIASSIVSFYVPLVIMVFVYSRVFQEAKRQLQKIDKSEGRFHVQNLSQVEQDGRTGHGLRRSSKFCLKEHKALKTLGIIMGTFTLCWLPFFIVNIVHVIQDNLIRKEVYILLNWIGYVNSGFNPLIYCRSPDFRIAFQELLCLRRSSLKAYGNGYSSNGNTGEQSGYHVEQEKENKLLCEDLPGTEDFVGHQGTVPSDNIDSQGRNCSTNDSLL
Sequence of Cytochrome P450 2C9 (Homo sapiens) (P11712 whole entry, looked up): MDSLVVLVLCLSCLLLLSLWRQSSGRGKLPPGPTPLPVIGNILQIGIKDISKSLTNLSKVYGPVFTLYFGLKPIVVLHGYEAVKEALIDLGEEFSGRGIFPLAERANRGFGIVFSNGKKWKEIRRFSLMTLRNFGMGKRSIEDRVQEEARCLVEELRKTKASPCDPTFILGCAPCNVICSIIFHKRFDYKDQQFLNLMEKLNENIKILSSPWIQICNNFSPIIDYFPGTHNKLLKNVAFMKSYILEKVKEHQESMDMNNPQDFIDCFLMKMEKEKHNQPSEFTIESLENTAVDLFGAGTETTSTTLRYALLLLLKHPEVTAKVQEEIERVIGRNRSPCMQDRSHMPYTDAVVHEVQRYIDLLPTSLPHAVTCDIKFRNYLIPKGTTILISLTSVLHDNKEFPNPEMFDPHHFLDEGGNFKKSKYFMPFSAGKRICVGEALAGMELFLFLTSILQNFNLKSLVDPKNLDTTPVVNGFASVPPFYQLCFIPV

O=C(c1cc(C2CC2)on1)N(C1CCCCC1)C1CCCCC1
inhibition [1]: 24% (inactive)
inhibition [2]: 0% (inactive)
inhibition [3]: 21% (inactive)
inhibition [4]: 16% (inactive)
inhibition ([5]; Ricerca receptor/enzyme binding panel plus CYP450, Flunitrazepam): 1% (inactive)
inhibition ([5]; Ricerca receptor/enzyme binding panel plus CYP450, Muscimol): -2% (inactive)
inhibition [6]: -2% (inactive)
inhibition [7]: 13% (inactive)
inhibition [8]: -1% (inactive)
inhibition [9]: 68%
inhibition [10]: 45% (inactive)
inhibition [11]: 21% (inactive)
inhibition [12]: 42% (inactive)
inhibition [13]: 59%
inhibition [14]: -26% (inactive)
inhibition [15]: -1% (inactive)
inhibition [16]: 47% (inactive)
inhibition [17]: -1% (inactive)
inhibition [18]: 51%
inhibition [19]: 52%
inhibition [20]: 38% (inactive)
inhibition [21]: 38% (inactive)
inhibition [22]: 28% (inactive)
inhibition [23]: 74%
inhibition [24]: 58%
inhibition [25]: 5% (inactive)
inhibition [26]: 32% (inactive)
inhibition [27]: -50%
inhibition [28]: 20% (inactive)
inhibition [29]: 34% (inactive)
inhibition [30]: 1% (inactive)
